# What was measured:
# Format in all cases: in vivo
# Settings in all cases: 250 g/h, evaluated after 13 days, five-point scale
# [1] = test system: Amaranthus retoflexus (AMARE); assay: Post-emergence herbicidal glasshouse test, AMARE
# Experimental: (§1) Seeds of a variety of test species are sown in standard soil in pots Amaranthus retoflexus (AMARE), Abutilon theophrasti (ABUTH), Setaria faberi (SETFA), Echinochloa crus-galli (ECHCG), Ipomoea hederacea (IPOHE)). After cultivation for one day (pre-emergence) or after 8 days cultivation (post-emergence) under controlled conditions in a glasshouse (at 24/16° C., day/night; 14 hours light; 65% humidity), the plants are sprayed with an aqueous spray solution derived from the formulation of the technical active ingredient in acetone/water (50:50) solution containing 0.5% Tween 20 (polyoxyethelyene sorbitan monolaurate, CAS RN 9005-64-5). Compounds are applied at 250 g/h unless otherwise indicated. The test plants are then grown in a glasshouse under controlled conditions in a glasshouse (at 24/16° C., day/night; 14 hours light; 65% humidity) and watered twice daily. After 13 days for pre and post-emergence, the test is evaluated for the percentage damage caused to the plant. The biological activities are shown in the following table on a five-point scale (5=80-100%; 4=60-79%; 3=40-59%; 2=20-39%; 1=0-19%).
# [2] = test system: Abutilon theophrasti (ABUTH); assay: Post-emergence herbicidal glasshouse test, ABUTH
# Experimental: as §1
# Setaria faberi (SETFA) [3] = assay: Post-emergence herbicidal glasshouse test, SETFA
# Experimental: as §1
# [4] = test system: Echinochloa crus-galli (ECHCG); assay: Post-emergence herbicidal glasshouse test, ECHCG
# Experimental: as §1
# [5] = test system: Ipomoea hederacea (IPOHE); assay: Post-emergence herbicidal glasshouse test, IPOHE
# Experimental: as §1
# [6] = test system: Amaranthus retoflexus (AMARE); assay: Pre-emergence herbicidal glasshouse test, AMARE
# Experimental: as §1
# [7] = test system: Abutilon theophrasti (ABUTH); assay: Pre-emergence herbicidal glasshouse test, ABUTH
# Experimental: as §1
# Setaria faberi (SETFA) [8] = assay: Pre-emergence herbicidal glasshouse test, SETFA
# Experimental: as §1
# [9] = test system: Echinochloa crus-galli (ECHCG); assay: Pre-emergence herbicidal glasshouse test, ECHCG
# Experimental: as §1
# [10] = test system: Ipomoea hederacea (IPOHE); assay: Pre-emergence herbicidal glasshouse test, IPOHE
# Experimental: as §1
SMILES,"percentage damage caused to the plant, POST Application AMARE [1]","percentage damage caused to the plant, POST Application ABUTH [2]","percentage damage caused to the plant, POST Application SETFA (Setaria faberi (SETFA) [3])","percentage damage caused to the plant, POST Application ECHCG [4]","percentage damage caused to the plant, POST Application IPOHE [5]","percentage damage caused to the plant, PRE Application AMARE [6]","percentage damage caused to the plant, PRE Application ABUTH [7]","percentage damage caused to the plant, PRE Application SETFA (Setaria faberi (SETFA) [8])","percentage damage caused to the plant, PRE Application ECHCG [9]","percentage damage caused to the plant, PRE Application IPOHE [10]"
CCC(=O)N(C)Cc1c(OC(F)(F)F)ccc(C(=O)Nc2nnnn2C)c1Cl [Compound 1.001],5 (5=80-100%),5 (5=80-100%),5 (5=80-100%),5 (5=80-100%),5 (5=80-100%),5 (5=80-100%),5 (5=80-100%),3 (3=40-59%),4 (4=60-79%),1 (1=0-19%)
CN(Cc1c(OC(F)(F)F)ccc(C(=O)Nc2nnnn2C)c1Cl)C(=O)C1CC1 [Compound 1.002],5 (5=80-100%),5 (5=80-100%),5 (5=80-100%),5 (5=80-100%),5 (5=80-100%),1 (1=0-19%),3 (3=40-59%),2 (2=20-39%),2 (2=20-39%),1 (1=0-19%)
"CCC(=O)NCc1c(OC(F)(F)F)ccc(C(=O)Nc2nnnn2C)c1Cl [Compound 1.003, 2-chloro-N-(1-methyltetrazol-5-yl)-3-[(propanoylamino)methyl]-4-(trifluoromethoxy)benzamide]",5 (5=80-100%),–,5 (5=80-100%),5 (5=80-100%),5 (5=80-100%),5 (5=80-100%),5 (5=80-100%),4 (4=60-79%),1 (1=0-19%),3 (3=40-59%)
CCCC(=O)NCc1c(OC(F)(F)F)ccc(C(=O)Nc2nnnn2CC)c1Cl [Compound 1.005],5 (5=80-100%),5 (5=80-100%),5 (5=80-100%),–,5 (5=80-100%),5 (5=80-100%),5 (5=80-100%),1 (1=0-19%),1 (1=0-19%),1 (1=0-19%)
Cn1nnnc1NC(=O)c1ccc(OC(F)(F)F)c(CNC(=O)c2c(F)cccc2F)c1Cl [Compound 1.008],–,5 (5=80-100%),4 (4=60-79%),5 (5=80-100%),5 (5=80-100%),5 (5=80-100%),5 (5=80-100%),2 (2=20-39%),2 (2=20-39%),1 (1=0-19%)
CC(=O)NCc1c(OC(F)(F)F)ccc(C(=O)Nc2nnnn2C)c1Cl [Compound 1.009],5 (5=80-100%),5 (5=80-100%),5 (5=80-100%),5 (5=80-100%),5 (5=80-100%),5 (5=80-100%),5 (5=80-100%),5 (5=80-100%),5 (5=80-100%),4 (4=60-79%)
Cn1nnnc1NC(=O)c1ccc(OC(F)(F)F)c(CNC(=O)c2ccc(F)cc2F)c1Cl [Compound 1.010],5 (5=80-100%),5 (5=80-100%),5 (5=80-100%),5 (5=80-100%),5 (5=80-100%),5 (5=80-100%),5 (5=80-100%),1 (1=0-19%),1 (1=0-19%),1 (1=0-19%)
Cn1nnnc1NC(=O)c1ccc(OC(F)(F)F)c(CNC(=O)c2ccc(Cl)cc2)c1Cl [Compound 1.011],5 (5=80-100%),5 (5=80-100%),2 (2=20-39%),5 (5=80-100%),5 (5=80-100%),5 (5=80-100%),5 (5=80-100%),1 (1=0-19%),1 (1=0-19%),1 (1=0-19%)

# Source: patent US20250221411A1, “SUBSTITUTED BENZAMIDES AS HERBICIDES” (SYNGENTA CROP PROTECTION AG, priority 2021, published 2025)
